Assays:
[1] = system: KEAP1-mutant lung cancer cells; assay: Sensitivity of wild-type and KEAP1-mutated lung cancer cell lines to ML329; type: cell-based; settings: sensitive cell lines had IC50<10 μM (FIG. 35B)
Experimental: ML329 (4-[(1,4-dioxo-1,4-dihydronapthalen-2-yl)amino]benzenesulfonamide; […]) is a small molecule that was initially identified as an inhibitor of microphthalmia-associated transcription factor (MITF) (FIGS. 1-6). Briefly, Sk-MEL-5 melanoma cells expressing the promoter of MITF target TRPM1, upstreatm of a luciferase gene, were screened with a library of 331,578 compounds. Secondary screening was performed in two MITF-dependent melanoma cell links (SK-MEL-5 and MALME) and one non-MITF dependent cell line (A375). Candidate hits were tested for their effects on MITF target genes by qPCR. BRD-K45681478 was prioritized for medicinal chemistry. The lead compounds ML329 was used in subsequent studies. […] CK2 is an essential kinase and its reduction/inhibition is lethal (FIG. 11 and FIG. 12). Experiments were performed to determine that ML329 is bioreduced by an enzyme called NQO1, which is preferentially expressed in some cancer types, especially melanoma (FIGS. 13-15). Since ML329 is converted by cancer cells into an active form, it can avoid effects on normal cells. NQO1 is necessary and sufficient for the activity of ML329, thus enabling targeting of CK2 specifically to cancers with high NQO1 expression (FIGS. 16-18). […] Greater than 90% of KEAP1-mutant lung cancers were determined to be sensitive to ML329 (FIG. 20).

MITF = assay: qPCR of MITF mRNA and MITF target genes; type: cell-based; settings: FIG. 22
Description: FIG. 26A-FIG. 26H show the results of a small molecule screen to identify regulators of lineage-specific melanoma oncogene MITF. […] SK-MEL-5 cells stably expressing the TRPM1 promoter fused to the luciferase gene were screened with 331,578 compounds. Secondary screens of putative hits including evaluating cytotoxicity in 2 MITF-dependent cell lines (SK-MEL-5, MALME) and 1 MITF-independent cell line (A375M) and evaluation the effect of candidate hits on the mRNA of MITF and target genes. […] BRD-K45681478 was the lead hit, which was modified by structure-function analysis to generate the compound ML329. FIG. 26B show cell number after 48 h treatment of melanoma cell lines (red) compared to non-melanoma cell lines (black) with ML329. […] MITF-dependent cell lines are depicted in green, whereas the MITF-independent cell line is depicted in red.
ML329 (4-[(1,4-dioxo-1,4-dihydronapthalen-2-yl)amino]benzenesulfonamide; KUC114363) is a small molecule that was initially identified as an inhibitor of microphthalmia-associated transcription factor (MITF) (FIGS. 1-6). Briefly, Sk-MEL-5 melanoma cells expressing the promoter of MITF target TRPM1, upstreatm of a luciferase gene, were screened with a library of 331,578 compounds. […] Greater than 90% of KEAP1-mutant lung cancers were determined to be sensitive to ML329 (FIG. 20).

[2] = system: CK2alpha and CK2alpha prime; assay: Target identification: bead pull-down from SK-MEL-5 lysate with ML329 competition, mass spectrometry; type: binding
Description: Whole protein lysates were generated from SK-MEL-5 melanoma cells and mixed with either KUC114363 (a derivative of ML329 conjugated to agarose beads) or KUC114363 along with competing amounts of soluble ML329. Mass spectrometry was used to identify proteins that bound KUC114363 whose binding was diminished upon treatment with ML329. […] Kinases found to bound are marked with red circles, where larger circles indicate higher-affinity binding. KINOMEScan image was generated using TREEspot™ Software Tool and reprinted with permission from KINOMEscan®, a division of DiscoveRx Corporation, © DISCOVERX CORPORATION 2010.

Nqo1 = Nqo1 (Homo sapiens, UniProt P15559); assay: Reduction of ML329 by Nqo1 in vitro; type: biochemical; settings: FIG. 24D
Chain of Nqo1 (P15559 whole entry, species assumed): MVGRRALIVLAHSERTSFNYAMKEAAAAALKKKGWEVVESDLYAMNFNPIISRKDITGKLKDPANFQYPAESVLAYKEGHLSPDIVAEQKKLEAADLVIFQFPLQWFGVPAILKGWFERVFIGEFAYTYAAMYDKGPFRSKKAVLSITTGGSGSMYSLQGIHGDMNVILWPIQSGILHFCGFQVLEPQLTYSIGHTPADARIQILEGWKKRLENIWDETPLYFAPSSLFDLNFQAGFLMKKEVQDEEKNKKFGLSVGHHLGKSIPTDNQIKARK

WM266.4 cells = assay: WM266.4 melanoma xenograft, tumor volume; type: in vivo; settings: NSG mice xenografted with WM266.4 cells; 10 mg/kg twice daily
489 cancer cell lines = assay: PRISM viability screen of 489 cancer cell lines; type: cell-based; settings: 489 cell lines, FIG. 30
Experimental: Negative odds are associated with sensitivity to ML329 whereas positive odds are associated with insensitivity to ML329.
Strictly Standardized Mean Difference (SSMD) was determined for each cell line. Cell lines with SSMD<2 were filtered out. All cell lines tested had SSMD>2.

CK2 [3] = molecular target: CK2 (Homo sapiens, UniProt P68400); assay: CK2 activity in vitro, with or without Nqo1; type: biochemical; settings: for requirement of Nqo1 for inhibition of CK2 in vitro: FIG. 24E, 24F
Chain of CK2 (Homo sapiens, UniProt P68400) (P68400 whole entry): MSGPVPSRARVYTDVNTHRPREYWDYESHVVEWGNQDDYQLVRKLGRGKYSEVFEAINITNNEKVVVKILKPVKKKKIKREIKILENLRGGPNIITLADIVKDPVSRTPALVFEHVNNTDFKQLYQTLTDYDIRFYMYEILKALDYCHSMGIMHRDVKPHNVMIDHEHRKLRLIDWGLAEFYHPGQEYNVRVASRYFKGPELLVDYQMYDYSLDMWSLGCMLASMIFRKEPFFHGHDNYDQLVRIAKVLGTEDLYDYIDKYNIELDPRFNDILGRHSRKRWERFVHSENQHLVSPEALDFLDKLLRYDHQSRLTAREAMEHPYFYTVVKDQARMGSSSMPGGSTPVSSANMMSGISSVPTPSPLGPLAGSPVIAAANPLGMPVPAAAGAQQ

CK2 [4] = molecular target: T1, CK2 (Homo sapiens, UniProt P19784+P68400); assay: SAR of ML329 derivatives: NQO1-dependent CK2 inhibitors; type: cell-based; settings: FIG. 21
T1 construct: endogenous in cells
T1 sequence (P68400 whole entry): as above
T1 sequence (P19784 whole entry): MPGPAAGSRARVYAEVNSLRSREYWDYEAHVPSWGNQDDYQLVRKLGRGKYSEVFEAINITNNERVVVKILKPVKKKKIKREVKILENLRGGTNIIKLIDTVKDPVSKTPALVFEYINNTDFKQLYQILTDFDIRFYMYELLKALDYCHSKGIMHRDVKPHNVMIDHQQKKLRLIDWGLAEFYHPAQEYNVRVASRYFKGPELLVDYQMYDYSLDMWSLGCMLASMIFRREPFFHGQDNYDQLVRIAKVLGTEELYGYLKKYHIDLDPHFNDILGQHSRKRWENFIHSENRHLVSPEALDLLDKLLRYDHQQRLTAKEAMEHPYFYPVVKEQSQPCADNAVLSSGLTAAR
T1 sequence (P67870 whole entry partner): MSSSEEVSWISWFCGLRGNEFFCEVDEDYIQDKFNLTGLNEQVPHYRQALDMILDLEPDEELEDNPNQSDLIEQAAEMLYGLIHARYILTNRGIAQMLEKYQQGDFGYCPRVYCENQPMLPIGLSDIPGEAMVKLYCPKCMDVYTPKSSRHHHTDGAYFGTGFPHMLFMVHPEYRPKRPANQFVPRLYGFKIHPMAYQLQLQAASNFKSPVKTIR

## NS(=O)(=O)c1ccc(NC2=CC(=O)c3ccccc3C2=O)cc1 [ML329, 4-[(1,4-dioxo-1,4-dihydronapthalen-2-yl)amino]benzenesulfonamide]
[1]
  share of KEAP1-mutant lung cancers sensitive to ML329: Greater than 90%
MITF
  effect on MITF mRNA and target gene expression: suppresses MITF mRNA and target gene expression
[2]
  binding to CK2 subunits in vitro: binds to CK2alpha and CK2alpha prime
Nqo1
  substrate of Nqo1 in vitro: direct substrate of Nqo1 in vitro
WM266.4 cells
  in vivo activity in melanoma (tumor volume): has in vivo activity in melanoma that requires NRF2/NQO1
489 cancer cell lines
  selectivity of cytotoxicity across cancer cell lines: selectively cytotoxic in melanoma cells
CK2 [3]
  requirement of Nqo1 for inhibition of CK2 in vitro: Nqo1 is required
CK2 [3]; in vitro
  inhibition of CK2 activity: inhibits CK2 activity in an ATP-competitive manner

## O=C(O)c1ccc2c(c1)nc(Nc1cccc(Cl)c1)c1ccncc12 [CX4945, 5-[(3-Chlorophenyl)amino]benzo[c]-2,6-naphthyridine-8-carboxylic acid, reference compound]
CK2 [4]
  potency and selectivity as NQO1-dependent CK2 inhibitor (SAR, relative to ML329): more potent and selective NQO1-dependent CK2 inhibitors
CK2 [3]
  requirement of Nqo1 for inhibition of CK2 in vitro: Nqo1 is not required

## NC(=O)c1ccc(NC2=CC(=O)c3ccccc3C2=O)cc1 [SCAP105463]
CK2 [4]
  potency and selectivity as NQO1-dependent CK2 inhibitor (SAR, relative to ML329): more potent and selective NQO1-dependent CK2 inhibitors

## NS(=O)(=O)c1cccc(NC2=CC(=O)c3ccccc3C2=O)c1 [SCAP105461]
CK2 [4]
  potency and selectivity as NQO1-dependent CK2 inhibitor (SAR, relative to ML329): more potent and selective NQO1-dependent CK2 inhibitors

Reference: patent publication US12560609B2, “Biomarkers predictive of cancer cell response to ML329 or a derivative thereof” (Dana-Farber Cancer Institute, Inc., priority 2018, dated 2026)
